Assays:
Assay in all cases: cells
[1] = tested on: GP5d; assay type: functional, cell-based, Homo sapiens; settings: Homo sapiens, GP5d;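 note: growth inhibition of human GP5d cells, read out with a cell viability assay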
Description: SANGER: Inhibition of human GP5d cell growth in a cell viability assay.

[2] = tested on: SK-MEL3; assay type: functional, cell-based, Homo sapiens, SK-MEL-3; settings: Homo sapiens, SK-MEL3;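 note: growth inhibition of human SK-MEL-3 cells, read out with a cell viability assay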
Description: SANGER: Inhibition of human SK-MEL-3 cell growth in a cell viability assay.

[3] = tested on: T98G; assay type: functional, cell-based, Homo sapiens; settings: Homo sapiens, T98G;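 note: growth inhibition of T98G cells, read out by a cell viability assay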
Description: SANGER: Inhibition of human T98G cell growth in a cell viability assay.

[4] = tested on: HCC1937; assay type: functional, cell-based, Homo sapiens; settings: Homo sapiens, HCC1937;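 note: growth inhibition measured with a cell viability read-out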
Description: SANGER: Inhibition of human HCC1937 cell growth in a cell viability assay.

[5] = tested on: BXPC-3; assay type: functional, cell-based, Homo sapiens; settings: Homo sapiens, BXPC-3;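 note: growth inhibition of human BxPC-3 cells, read out by a cell viability assay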
Description: SANGER: Inhibition of human BxPC-3 cell growth in a cell viability assay.

[6] = tested on: LU-99A; assay type: functional, cell-based, Homo sapiens; settings: Homo sapiens, LU-99A;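 note: growth inhibition of LU-99A cells, read out with a cell viability assay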
Description: SANGER: Inhibition of human LU-99A cell growth in a cell viability assay.

[7] = tested on: HT-1080; assay type: functional, cell-based, Homo sapiens; settings: Homo sapiens, HT-1080
Description: SANGER: Inhibition of human HT-1080 cell growth in a cell viability assay.

[8] = tested on: SW1990; assay type: functional, cell-based, Homo sapiens; settings: Homo sapiens, SW1990;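 note: cell growth inhibition determined with a viability assay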
Description: SANGER: Inhibition of human SW1990 cell growth in a cell viability assay.

[9] = tested on: YH-13; assay type: functional, cell-based, Homo sapiens; settings: Homo sapiens, YH-13;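 note: cell viability readout of growth suppression in the human YH-13 cell line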
Description: SANGER: Inhibition of human YH-13 cell growth in a cell viability assay.

[10] = tested on: UMUC3; assay type: functional, cell-based, Homo sapiens; settings: Homo sapiens, UMUC3;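 note: growth inhibition of human UM-UC-3 cells, read out with a cell viability assay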
Description: SANGER: Inhibition of human UM-UC-3 cell growth in a cell viability assay.

[11] = tested on: NCI-H1573; assay type: functional, cell-based, Homo sapiens; settings: Homo sapiens, NCI-H1573;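 note: growth inhibition of NCI-H1573 cells, read out with a cell viability assay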
Description: SANGER: Inhibition of human NCI-H1573 cell growth in a cell viability assay.

[12] = tested on: MOLT-13; assay type: functional, cell-based, Homo sapiens; settings: Homo sapiens, MOLT-13;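 note: IC50 for suppression of MOLT-13 cell growth, read out with a cell viability assay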
Description: SANGER: Inhibition of human MOLT-13 cell growth in a cell viability assay.

[13] = tested on: NCI-H1437; assay type: functional, cell-based, Homo sapiens; settings: Homo sapiens, NCI-H1437;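 note: growth inhibition of human NCI-H1437 cells, read out by a cell viability assay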
Description: SANGER: Inhibition of human NCI-H1437 cell growth in a cell viability assay.

[14] = tested on: 5637; assay type: functional, cell-based, Homo sapiens; settings: Homo sapiens
Description: SANGER: Inhibition of human 5637 cell growth in a cell viability assay.

[15] = tested on: KYSE-70 cell line; assay type: functional, cell-based, Homo sapiens; settings: Homo sapiens, KYSE-70;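 note: cell viability assay read-out, with IC50 expressing suppression of KYSE-70 cell growth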
Description: SANGER: Inhibition of human KYSE-70 cell growth in a cell viability assay.

[16] = tested on: SW756; assay type: functional, cell-based, Homo sapiens; settings: Homo sapiens, SW756;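 note: growth inhibition of human SW756 cells, read out with a cell viability assay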
Description: SANGER: Inhibition of human SW756 cell growth in a cell viability assay.

[17] = tested on: OVCAR-3; assay type: functional, cell-based, Homo sapiens; settings: Homo sapiens, OVCAR-3;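 note: growth inhibition of human OVCAR-3 cells, determined by a cell viability assay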
Description: SANGER: Inhibition of human OVCAR-3 cell growth in a cell viability assay.

[18] = tested on: G-402; assay type: functional, cell-based, Homo sapiens; settings: Homo sapiens, G-402
Description: SANGER: Inhibition of human G-402 cell growth in a cell viability assay.

[19] = tested on: SK-MEL-28; assay type: functional, cell-based, Homo sapiens; settings: Homo sapiens, SK-MEL-28;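 note: growth inhibition of human SK-MEL-28 cells, read out with a cell viability assay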
Description: SANGER: Inhibition of human SK-MEL-28 cell growth in a cell viability assay.

[20] = tested on: CAKI-1; assay type: functional, cell-based, Homo sapiens; settings: Homo sapiens, CAKI-1;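 note: growth inhibition of CAKI-1 cells, measured by a cell viability assay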
Description: SANGER: Inhibition of human CAKI-1 cell growth in a cell viability assay.

[21] = tested on: SN12C; assay type: functional, cell-based, Homo sapiens; settings: Homo sapiens, SN12C;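 note: growth inhibition of human SN12C cells, measured by a cell viability assay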
Description: SANGER: Inhibition of human SN12C cell growth in a cell viability assay.

[22] = tested on: C-33-A; assay type: functional, cell-based, Homo sapiens; settings: Homo sapiens, C-33-A;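 note: cell viability assay measuring growth inhibition of C-33-A cells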
Description: SANGER: Inhibition of human C-33-A cell growth in a cell viability assay.

[23] = tested on: MHH-ES-1; assay type: functional, cell-based, Homo sapiens; settings: Homo sapiens, MHH-ES-1;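 note: cell growth inhibition measured by a cell viability assay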
Description: SANGER: Inhibition of human MHH-ES-1 cell growth in a cell viability assay.

[24] = tested on: NCI-H2228; assay type: functional, cell-based, Homo sapiens; settings: Homo sapiens, NCI-H2228;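 note: growth inhibition of human NCI-H2228 cells, read out by a cell viability assay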
Description: SANGER: Inhibition of human NCI-H2228 cell growth in a cell viability assay.

[25] = tested on: IGR-1; assay type: functional, cell-based, Homo sapiens; settings: Homo sapiens, IGR-1;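 note: growth inhibition of human IGR-1 cells, read out with a cell viability assay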
Description: SANGER: Inhibition of human IGR-1 cell growth in a cell viability assay.

[26] = tested on: LN-405; assay type: functional, cell-based, Homo sapiens; settings: Homo sapiens, LN-405
Description: SANGER: Inhibition of human LN-405 cell growth in a cell viability assay.

[27] = tested on: HuO9; assay type: functional, cell-based, Homo sapiens; settings: Homo sapiens, HuO9;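 note: growth inhibition of HuO9 cells, read out with a cell viability assay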
Description: SANGER: Inhibition of human HuO9 cell growth in a cell viability assay.

[28] = tested on: A 172; assay type: functional, cell-based, Homo sapiens; settings: Homo sapiens, A 172;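 note: growth inhibition of A172 cells, measured with a cell viability readout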
Description: SANGER: Inhibition of human A172 cell growth in a cell viability assay.

[29] = tested on: Ca9-22; assay type: functional, cell-based, Homo sapiens; settings: Homo sapiens, Ca9-22;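 note: growth inhibition of Ca9-22 cells, read out with a cell viability assay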
Description: SANGER: Inhibition of human Ca9-22 cell growth in a cell viability assay.

[30] = tested on: 639-V; assay type: functional, cell-based, Homo sapiens; settings: Homo sapiens, 639-V;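 note: growth inhibition of 639-V cells, read out with a cell viability assay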
Description: SANGER: Inhibition of human 639-V cell growth in a cell viability assay.

[31] = tested on: HT1197; assay type: functional, cell-based, Homo sapiens, HT-1197; settings: Homo sapiens, HT1197
Description: SANGER: Inhibition of human HT-1197 cell growth in a cell viability assay.

[32] = tested on: HT-1376; assay type: functional, cell-based, Homo sapiens; settings: Homo sapiens, HT-1376
Description: SANGER: Inhibition of human HT-1376 cell growth in a cell viability assay.

[33] = tested on: SK-OV-3; assay type: functional, cell-based, Homo sapiens; settings: Homo sapiens, SK-OV-3;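 note: growth inhibition of SK-OV-3 human cells, read out with a cell viability assay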
Description: SANGER: Inhibition of human SK-OV-3 cell growth in a cell viability assay.

[34] = tested on: KP-N-YN; assay type: functional, cell-based, Homo sapiens; settings: Homo sapiens, KP-N-YN;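 note: growth inhibition of KP-N-YN cells, read out with a cell viability assay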
Description: SANGER: Inhibition of human KP-N-YN cell growth in a cell viability assay.

[35] = tested on: Huh-7; assay type: functional, cell-based, Homo sapiens; settings: Homo sapiens, Huh-7;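 note: HuH-7 cell growth inhibition, read out with a cell viability assay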
Description: SANGER: Inhibition of human HuH-7 cell growth in a cell viability assay.

| Structure (SMILES) | IC50 [1] | IC50 [2] | IC50 [3] | IC50 [4] | IC50 [5] | IC50 [6] | IC50 [7] | IC50 [8] | IC50 [9] | IC50 [11] | IC50 [12] | IC50 [13] | IC50 [14] | IC50 [15] | IC50 [16] | IC50 [17] | IC50 [18] | IC50 [20] | IC50 [21] | IC50 [22] | further results |
| --- | --- | --- | --- | --- | --- | --- | --- | --- | --- | --- | --- | --- | --- | --- | --- | --- | --- | --- | --- | --- | --- |
| CO[C@H]1C[C@@H]2CC[C@@H](C)[C@@](O)(O2)C(=O)C(=O)N2CCCC[C@H]2C(=O)O[C@H]([C@H](C)C[C@@H]2CC[C@@H](OC(=O)C(C)(CO)CO)[C@H](OC)C2)CC(=O)[C@H](C)/C=C(\C)[C@@H](O)[C@@H](OC)C(=O)[C@H](C)C[C@H](C)/C=C/C=C/C=C/1C [TEMSIROLIMUS] | > 0.2 µM | > 200 nM | 0.0262 µM | > 0.2 µM | > 0.2 µM | 0.125 µM | 17.9 nM | > 0.2 µM | 0.0411 µM | > 0.2 µM | > 200 nM | 103 nM | > 0.2 µM | > 0.2 µM | > 0.2 µM | > 0.2 µM | > 0.2 µM | 0.0687 µM | 0.183 µM | > 0.2 µM | IC50 [10]: 69.2 nM; IC50 [19]: 131 nM; IC50 [23]: 91.9 nM; IC50 [24]: > 0.2 µM; IC50 [25]: > 0.2 µM; IC50 [26]: 0.135 µM; IC50 [27]: 0.177 µM; IC50 [28]: > 200 nM; IC50 [29]: 96.6 nM; IC50 [30]: > 0.2 µM; IC50 [31]: > 0.2 µM; IC50 [32]: > 0.2 µM; IC50 [33]: > 0.2 µM; IC50 [34]: > 0.2 µM; IC50 [35]: 12.3 nM |
| CCN(CC)CCCCNc1ncc2cc(-c3cc(OC)cc(OC)c3)c(NC(=O)NC(C)(C)C)nc2n1 [PD-173074] | > 2 µM | > 2000 nM | > 2 µM | > 2 µM | > 2 µM | > 2 µM | > 2000 nM | > 2 µM | > 2 µM | > 2 µM | > 2000 nM | > 2000 nM | > 2 µM | > 2 µM | > 2 µM | > 2 µM | > 2 µM | > 2 µM | > 2 µM | > 2 µM | IC50 [10]: > 2000 nM; IC50 [19]: > 2000 nM; IC50 [23]: > 2000 nM; IC50 [24]: > 2 µM; IC50 [25]: > 2 µM; IC50 [26]: > 2 µM; IC50 [27]: > 2 µM; IC50 [28]: 1700 nM; IC50 [29]: > 2000 nM; IC50 [30]: > 2 µM; IC50 [31]: > 2 µM; IC50 [32]: > 2 µM; IC50 [33]: > 2 µM; IC50 [34]: > 2 µM; IC50 [35]: 1240 nM |
| COc1cc2c(Nc3ccc(NC(=O)c4ccccc4)cc3)ncnc2cc1OCCCN1CCOCC1 | > 4 µM | > 4000 nM | 3.95 µM | > 4 µM | > 4 µM | > 4 µM | > 4000 nM | > 4 µM | > 4 µM | > 4 µM | 1570 nM | > 4000 nM | > 4 µM | > 4 µM | > 4 µM | > 4 µM | > 4 µM | > 4 µM | > 4 µM | > 4 µM | IC50 [10]: > 4000 nM; IC50 [19]: > 4000 nM; IC50 [23]: 2130 nM; IC50 [24]: > 4 µM; IC50 [25]: > 4 µM; IC50 [26]: > 4 µM; IC50 [27]: > 4 µM; IC50 [28]: 984 nM; IC50 [29]: 3290 nM; IC50 [30]: > 4 µM; IC50 [31]: > 4 µM; IC50 [32]: > 4 µM; IC50 [33]: > 4 µM; IC50 [34]: > 4 µM; IC50 [35]: > 4000 nM |
| Nc1cccc2c1CN(C1CCC(=O)NC1=O)C2=O (configuration not stated) [LENALIDOMIDE] | > 5 µM | > 5000 nM | > 5 µM | > 5 µM | > 5 µM | > 5 µM | > 5000 nM | > 5 µM | > 5 µM | > 5 µM | > 5000 nM | > 5000 nM | > 5 µM | > 5 µM | > 5 µM | > 5 µM | > 5 µM | > 5 µM | > 5 µM | > 5 µM | IC50 [10]: > 5000 nM; IC50 [19]: > 5000 nM; IC50 [23]: > 5000 nM; IC50 [24]: > 5 µM; IC50 [25]: > 5 µM; IC50 [26]: > 5 µM; IC50 [27]: > 5 µM; IC50 [28]: > 5000 nM; IC50 [29]: > 5000 nM; IC50 [30]: > 5 µM; IC50 [31]: > 5 µM; IC50 [32]: > 5 µM; IC50 [33]: > 5 µM; IC50 [34]: > 5 µM; IC50 [35]: > 5000 nM |
| Cn1cnc2c(F)c(Nc3ccc(Br)cc3Cl)c(C(=O)NOCCO)cc21 [SELUMETINIB] | > 4 µM | 1950 nM | > 4 µM | > 4 µM | > 4 µM | > 4 µM | 2430 nM | > 4 µM | > 4 µM | > 4 µM | > 4000 nM | 353 nM | > 4 µM | > 4 µM | > 4 µM | > 4 µM | > 4 µM | > 4 µM | 3.96 µM | > 4 µM | IC50 [23]: > 4000 nM; IC50 [24]: > 4 µM; IC50 [25]: > 4 µM; IC50 [26]: > 4 µM; IC50 [27]: > 4 µM; IC50 [29]: 2380 nM; IC50 [30]: > 4 µM; IC50 [31]: > 4 µM; IC50 [32]: > 4 µM; IC50 [33]: > 4 µM; IC50 [34]: > 4 µM; IC50 [35]: > 4000 nM |
